Data set [1] has as its system ERK2 (p42). Put plainly: ERK2 (p42) activation in NS20Y cells. The data set is classed as cell-based, mouse. As to the method:
Cell stimulation, immunoblotting, and immunoprecipitation: Cells or neurons are grown in 6-well or 12-well plates to 80-90% confluence. The cells are starved in serum-free DMEM overnight, and then incubated with receptor agonists at 37° C. for the indicated durations. In some experiments, signaling inhibitors are added 45 minutes before simulation. Incubation is terminated by placing the tissue culture cluster on ice and rapidly aspirating the medium, followed by the addition of ice-cold RIPA^+ buffer (50 mM Tris-HCl, pH 7.5, 150 mM NaCl, 1% NP-40, 0.5% deoxycholate, 0.1% SDS, 1 mM NaVO3, and protease inhibitor (Calbiochem, San Diego, Calif.)) and incubation for 15 minutes with shaking. After centrifugation (14,000×g at 4° C. for 15 minutes), the supernatant is collected and the protein concentration is measured and adjusted using RIPA^+ buffer. Samples (30 μl) with equal amounts of protein mixed with Laemmli loading buffer are denatured at 70° C. for 10 minutes and separated by SDS-PAGE. […] The proteins are transferred to PVDF membrane (Millipore), detected with the primary antibodies (including anti-active ERK; anti-p-Tyr clone 4G10, Upstate; anti-TH; anti-DAT, sigma, anti-β-tubulin, etc.) and visualized with the SuperSignal™ West Pico chemiluminescent kit (Pierce Biotechnology, Rockford, Ill.). The intensity of bands is quantified using ImageQuant™ 5.2 (Amersham). […]

Data set [2] relates to ERK. Briefly: ERK phosphorylation in primary rat SNc dopaminergic neurons, p-ERK staining. In kind it is cell-based. The settings on record: primary rat SNc neuron culture, A9 1 μM, 1 hour. Here is the method: Primary cultures of rat embryonic SNc neurons were stimulated with vehicle (NT) or A9 (1 μM) for 1 hour and then stained for tyrosine hydroxylase (TH) and phospho-ERK (p-ERK). Images were digitally captured with an Olympus CX640 fluorescence microscope.
Primary Neuronal Cultures: The substantia nigra or striatal region is dissected from 4 day-old Sprague-Dawley rats and incubated in minimum essential medium (MEM) containing 20 U/ml papain for 2 hours at 37° C. The tissue is then triturated using fire-polished Pasteur pipettes in MEM supplemented with 10% fetal bovine serum, 0.45% glucose, […] insulin, 0.5 mM glutamine, 100 U/ml penicillin, and 100 μg/ml streptomycin. Cells are plated on 18 mm diameter poly-D-lysine-coated glass coverslips (Fisher 12-545-84 18cir-1D) at a density of 75,000 cells per coverslip for immunofluorescence imaging or in 12-well or 6-well tissue culture plates for immunoblotting studies. […]
Cell preparation for microscopy: Neuroblastoma cells and rat striatal neurons are grown on glass coverslips and treated with poly-D-Lysine. […] The samples are examined by an Olympus CX640 fluorescence microscope, or scanned with a Leica TCS SP confocal laser scanning microscope. Images are digitally captured and recorded with computer. […]

A short description of data set [3]: Solubility of A9 stock. In kind it is physicochemical. As to the method:
(§1) 5. Physical properties: A9 stock can be dissolved in ethanol, methylene chloride, or DMSO as high as 25 mg/ml. The stock of A9 can then be diluted in water or saline. The final concentration in saline can reach 10 mg/ml according to our experience. A9 is very stable in organic solvents and keeps its activity (indicated by its ability to stimulate ERK activation in NS20Y cells, data not shown) for 6 months at room temperature. […] In saline, its half-life was reported to be 4 days at 37° C. (Golumb, Atherosclerosis 125:171-182, 1996). […] A similar evaluation of the chemical nature of any tyrphostin can be used to determine if it is of use to induce neurite outgrowth and regeneration in a subject.

Data set [4] can be described thus: Stability of A9 in solution. The data set is classed as physicochemical. As to the method: as §1
The conditions of data set [5]: Golomb et al. 1996; cited from earlier work.

This is an account of results in patent US20090012179A1, “Use of Tyrphostins to Stimulate Neurite Outgrowth” (priority 2004, published 2009).

“Also recorded” adds a separate entry of the source. Read-outs that look alike come from different tables or passages of the source. Some results are limits rather than exact numbers.

As for `CC(C)(C)c1cc(C=C(C#N)C#N)cc(C(C)(C)C)c1O` [A9, tyrphostin A9], in data set [1], the “ERK2 (p42) stimulation” value is “little stimulation on ERK2 (p42); also recorded: little effect on ERK2”. Besides, the “ERK phosphorylation/activation in dopaminergic neurons” value is “induced robust ERK activation” in data set [2] and “induced ERK phosphorylation” in data set [2] (listed as tyrphostin A9). In addition, the solubility in data set [3] (aqueous with cosolvent or surfactant or cyclodextrin, kinetic from dmso stock, stock diluted in saline, read-out: Final concentration in saline) was not below 10 mg/mL; in data set [3] (organic solvent or mixture, in ethanol, methylene chloride, or DMSO, read-out: Solubility of stock) it was not above 25 mg/mL. Besides, in data set [4] (in organic solvents), the “Effect of repeated freeze/thaw cycles on activity” value is on record as “do not affect its activity”. For the same molecule, the “Time for which activity is kept in organic solvents” value in data set [4] (room temperature, activity by ERK activation in NS20Y cells) is recorded as 6 months. Also, the Side effects entry in data set [5] is recorded as “has not been shown to produce obvious side effects”.
